The text below walks through data of patent US6653334B1, “Benzoxazole compound and pharmaceutical composition containing the same” (Kowa Co., Ltd., priority 2002, dated 2003).

What all share (assay type): cell-based
One test addresses T1, hPPARδ (Homo sapiens, UniProt Q03181).
T1 construct: expressed in transfected cells; host or cells: COS cells (Cercopithecus aethiops kidney)
T1 sequence (Q03181 1-441): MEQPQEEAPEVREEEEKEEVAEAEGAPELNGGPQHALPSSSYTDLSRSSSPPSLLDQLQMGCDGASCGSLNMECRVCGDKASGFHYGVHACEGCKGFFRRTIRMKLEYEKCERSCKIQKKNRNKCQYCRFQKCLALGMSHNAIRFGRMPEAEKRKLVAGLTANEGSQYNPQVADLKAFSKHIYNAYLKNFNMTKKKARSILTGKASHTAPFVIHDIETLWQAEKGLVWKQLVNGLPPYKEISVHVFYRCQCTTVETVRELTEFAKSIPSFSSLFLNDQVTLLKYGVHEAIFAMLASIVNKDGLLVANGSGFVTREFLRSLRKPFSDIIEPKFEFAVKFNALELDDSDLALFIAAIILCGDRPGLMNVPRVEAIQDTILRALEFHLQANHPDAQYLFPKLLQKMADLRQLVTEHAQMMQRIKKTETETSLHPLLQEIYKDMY
The test can be described thus: PPAR transfection (luciferase reporter) assay in COS cells, hPPARδ. Particulars: agonist activity, transiently transfected COS cells, 16 hours incubation; read-out: hPPAR; EC50 δ.

A further test deals with T2, hPPARα (Homo sapiens, UniProt Q07869).
T2 construct: expressed in transfected cells; host or cells: COS cells (Cercopithecus aethiops kidney)
T2 sequence (Q07869 1-468): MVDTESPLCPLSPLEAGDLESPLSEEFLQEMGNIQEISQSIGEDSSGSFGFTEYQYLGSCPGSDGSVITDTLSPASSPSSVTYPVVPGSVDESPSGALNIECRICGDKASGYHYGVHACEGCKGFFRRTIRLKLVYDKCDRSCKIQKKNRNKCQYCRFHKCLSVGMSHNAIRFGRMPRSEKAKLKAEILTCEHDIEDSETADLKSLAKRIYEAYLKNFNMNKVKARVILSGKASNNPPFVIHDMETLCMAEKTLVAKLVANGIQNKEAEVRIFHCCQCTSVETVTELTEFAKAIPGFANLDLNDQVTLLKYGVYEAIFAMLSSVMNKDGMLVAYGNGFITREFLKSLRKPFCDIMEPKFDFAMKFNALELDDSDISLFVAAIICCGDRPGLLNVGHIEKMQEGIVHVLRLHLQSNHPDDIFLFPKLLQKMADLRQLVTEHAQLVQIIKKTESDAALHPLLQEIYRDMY
The test can be described thus: PPAR transfection (luciferase reporter) assay in COS cells, hPPARα. To be noted: agonist activity, transiently transfected COS cells, 16 hours incubation; read-out: hPPAR; EC50 α.

The next test deals with T3, hPPARγ (Homo sapiens, UniProt P37231).
T3 construct: expressed in transfected cells; host or cells: COS cells (Cercopithecus aethiops kidney)
T3 sequence (P37231 1-505): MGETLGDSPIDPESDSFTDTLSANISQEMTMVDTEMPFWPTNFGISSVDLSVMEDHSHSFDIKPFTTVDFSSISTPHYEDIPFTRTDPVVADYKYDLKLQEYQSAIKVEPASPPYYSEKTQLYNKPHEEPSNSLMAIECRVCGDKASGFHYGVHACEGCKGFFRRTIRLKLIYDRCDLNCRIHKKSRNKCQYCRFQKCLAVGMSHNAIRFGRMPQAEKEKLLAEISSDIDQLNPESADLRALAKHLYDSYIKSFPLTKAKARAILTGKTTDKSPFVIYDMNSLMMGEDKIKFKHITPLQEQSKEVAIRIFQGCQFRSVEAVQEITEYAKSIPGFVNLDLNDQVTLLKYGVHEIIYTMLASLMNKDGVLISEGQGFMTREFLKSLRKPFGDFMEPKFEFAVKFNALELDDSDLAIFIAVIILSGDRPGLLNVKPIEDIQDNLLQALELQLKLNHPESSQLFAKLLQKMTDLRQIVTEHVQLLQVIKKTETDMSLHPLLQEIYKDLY
The test can be described thus: PPAR transfection (luciferase reporter) assay in COS cells, hPPARγ. Particulars: agonist activity, transiently transfected COS cells, 16 hours incubation; read-out: hPPAR; EC50 γ.

`CCC(Oc1cccc(CN(CCCc2ccccc2)c2nc3ccccc3o2)c1)C(=O)O` (stereo not drawn) [Example 55, 2-[3-[[N-(Benzoxazol-2-yl)-N-(3-phenylpropyl)]aminomethyl]phenoxy]butyric Acid]: the EC50 was found to be 600 nM on hPPARδ, 2 nM at hPPARα and 100 nM on hPPARγ.
For `CCCCCCCN(Cc1cccc(OCC(=O)O)c1)c1nc2ccccc2o1` [Example 46, 3-[[N-(Benzoxazol-2-yl)-N-n-heptyl]aminomethyl]phenoxyacetic Acid] the same measures were 1100 nM, 10 nM and 400 nM.
Turning to `CC(Oc1cccc(CN(CCCc2ccc(Cl)cc2)c2nc3ccccc3o2)c1)C(=O)O` (stereo not drawn) [Example 63, 2-[3-[[N-(Benzoxazol-2-yl)-N-(3-(4-chlorophenyl)propyl)]aminomethyl]phenoxy]propionic Acid], the results for the EC50 on hPPARδ, at hPPARα and at hPPARγ were 900 nM, 2 nM and 100 nM, respectively.
For `CN(C)c1ccc(CN(Cc2cccc(OC(C)(C)C(=O)O)c2)c2nc3ccccc3o2)cc1` [Example 41, 2-[3-[[N-(Benzoxazol-2-yl)-N-(4-dimethylaminobenzyl)]aminomethyl]phenoxy]-2-methylpropionic Acid] the same measures were 1800 nM, 10 nM and 200 nM.
On the same counts, the results for `CCCCCCCCN(CCCc1ccccc1OC(C)(C)C(=O)O)c1nc2ccccc2o1` [Example 155, 2-[2-[3-[N-(Benzoxazol-2-yl)-N-n-octyl]aminopropyl]phenoxy]-2-methylpropionic Acid] are 300 nM, 10 nM and 500 nM.
On to `CC#CCN(CCCc1cccc(OC(C)(C)C(=O)O)c1)c1nc2ccccc2o1` [Example 121, 2-[3-[3-[N-(Benzoxazol-2-yl)-N-(2-butynyl)]aminopropyl]phenoxy]-2-methylpropionic Acid], for which the results for the EC50 at hPPARδ, on hPPARα and at hPPARγ were above 10000 nM, 4 nM and 100 nM, respectively.
On to `CCN(CCCc1ccc(OC(C)(C)C(=O)O)cc1)c1nc2ccccc2o1` [Example 114, 2-[4-[3-[N-(Benzoxazol-2-yl)-N-ethyl]aminopropyl]phenoxy]-2-methylpropionic Acid], for which the EC50 at hPPARδ is above 10000 nM; at hPPARα, 10 nM; on hPPARγ, 400 nM.
For `CC(C)(Oc1cccc(CN(Cc2ccc(Cl)cc2)c2nc3ccccc3o2)c1)C(=O)O` [compound 1] the same measures were above 10000 nM, 10 nM and 200 nM.
As to `CC(C)(Oc1ccc(CN(Cc2ccccc2[N+](=O)[O-])c2nc3ccccc3o2)cc1)C(=O)O` [Example 29, 2-[4-[[N-(Benzoxazol-2-yl)-N-(2-nitrobenzyl)]aminomethyl]phenoxy]-2-methylpropionic Acid], the results for the EC50 on hPPARδ, at hPPARα and at hPPARγ were above 10000 nM, 100 nM and above 10000 nM, respectively.
With `CC(Oc1cccc(CN(CCCc2ccccc2)c2nc3ccccc3o2)c1)C(=O)O` (stereo not drawn) [Example 70, 2-[3-[[N-(Benzoxazol-2-yl)-N-(3-phenylpropyl)]aminomethyl]phenoxy]propionic Acid], the EC50 was above 10000 nM at hPPARδ, 1 nM on hPPARα and 400 nM at hPPARγ.
For `CCCN(CCCc1ccc(OC(C)(C)C(=O)O)cc1)c1nc2ccccc2o1` [Example 132, 2-[4-[3-[N-(Benzoxazol-2-yl)-N-n-propyl]aminopropyl]phenoxy]-2-methylpropionic Acid], the values for the EC50 at hPPARδ, on hPPARα and on hPPARγ were above 10000 nM, 30 nM and 2000 nM, respectively.
For `CC(C)N(CCCc1ccc(OC(C)(C)C(=O)O)cc1)c1nc2ccccc2o1` [Example 133, 2-[4-[3-[N-(Benzoxazol-2-yl)-N-isopropyl]aminopropyl]phenoxy]-2-methylpropionic Acid] the same measures were 3000 nM, 10 nM and 300 nM.
Take `CCCCCCCCN(Cc1cccc(OCC(=O)O)c1)c1nc2ccccc2o1` [Example 48, 3-[[N-(Benzoxazol-2-yl)-N-n-octyl]aminomethyl]phenoxyacetic Acid]: the EC50 on hPPARδ was 4500 nM; on hPPARα, 10 nM; at hPPARγ it was 700 nM.
Consider `CCC(Oc1cccc(CN(CCCc2ccc(Cl)cc2)c2nc3ccccc3o2)c1)C(=O)O` (stereo not drawn) [Example 56, 2-[3-[[N-(Benzoxazol-2-yl)-N-(3-(4-chlorophenyl)propyl)]aminomethyl]phenoxy]butyric Acid], for which the EC50 on hPPARδ came out at 1000 nM; on hPPARα, 1 nM; at hPPARγ, 100 nM.
As for `CCCCCCCCN(Cc1cccc(OC(CC)C(=O)O)c1)c1nc2ccccc2o1` (stereo not drawn) [Example 59, 2-[3-[[N-(Benzoxazol-2-yl)-N-n-octyl]aminomethyl]phenoxy]butyric Acid], the EC50 on hPPARδ was above 10000 nM; at hPPARα it was 3 nM; at hPPARγ, 100 nM.
For `CCCCCCCCN(Cc1cccc(OC(C)C(=O)O)c1)c1nc2ccccc2o1` (stereo not drawn) [Example 69, 2-[3-[[N-(Benzoxazol-2-yl)-N-n-octyl]aminomethyl]phenoxy]propionic Acid] the same measures were above 10000 nM, 0.3 nM and 200 nM.
With `CC(C)(Oc1cccc(CN(Cc2cccc3ccccc23)c2nc3ccccc3o2)c1)C(=O)O` [Example 135, 2-[3-[[N-(Benzoxazol-2-yl)-N-(naphth-1-ylmethyl)]aminomethyl]phenoxy]-2-methylpropionic Acid], the EC50 on hPPARδ is above 10000 nM; at hPPARα, 10 nM; at hPPARγ, above 10000 nM.
Take `CCCCCCCCN(Cc1cccc(OC(C)(C)C(=O)O)c1)c1nc2ccccc2o1` [Example 6, 2-[3-[[N-(Benzoxazol-2-yl)-N-n-octyl]aminomethyl]phenoxy]-2-methylpropionic Acid]: the values for the EC50 at hPPARδ, at hPPARα and at hPPARγ were above 10000 nM, 10 nM and 200 nM, respectively.
For `CCCN(Cc1cccc(OC(C)C(=O)O)c1)c1nc2ccccc2o1` (stereo not drawn) [Example 74, 2-[3-[[N-(Benzoxazol-2-yl)-N-n-propyl]aminomethyl]phenoxy]propionic Acid] the same measures were above 10000 nM, 100 nM and above 10000 nM.
For `CC(C)(Oc1ccc(CN(Cc2cccc3ccccc23)c2nc3ccccc3o2)cc1)C(=O)O` [Example 12, 2-[4-[[N-(Benzoxazol-2-yl)-N-(naphth-1-ylmethyl)]aminomethyl]phenoxy]-2-methylpropionic Acid] the same measures were 500 nM, 3 nM and 100 nM.
